Experimental data from patent publication US20120122924A1, “NAMPT INHIBITORS” (ABBOTT LABORATORIES, priority 2010, published 2012).
pIC50: −log10 of the molar value.

These compounds were tested against recombinant, human, C-terminally-His tagged NAMPT (Homo sapiens, UniProt P43490) (assay: Time-Resolved Fluorescence Resonance Energy Transfer (TR-FRET) binding assay of NAMPT). Settings: 6.8 nM NAMPT, 200 nM probe (Oregon Green 488-conjugated APO866), 1 nM Tb-anti-His antibody, 2-3 hours.
Sequence of recombinant, human, C-terminally-His tagged NAMPT (P43490 whole entry): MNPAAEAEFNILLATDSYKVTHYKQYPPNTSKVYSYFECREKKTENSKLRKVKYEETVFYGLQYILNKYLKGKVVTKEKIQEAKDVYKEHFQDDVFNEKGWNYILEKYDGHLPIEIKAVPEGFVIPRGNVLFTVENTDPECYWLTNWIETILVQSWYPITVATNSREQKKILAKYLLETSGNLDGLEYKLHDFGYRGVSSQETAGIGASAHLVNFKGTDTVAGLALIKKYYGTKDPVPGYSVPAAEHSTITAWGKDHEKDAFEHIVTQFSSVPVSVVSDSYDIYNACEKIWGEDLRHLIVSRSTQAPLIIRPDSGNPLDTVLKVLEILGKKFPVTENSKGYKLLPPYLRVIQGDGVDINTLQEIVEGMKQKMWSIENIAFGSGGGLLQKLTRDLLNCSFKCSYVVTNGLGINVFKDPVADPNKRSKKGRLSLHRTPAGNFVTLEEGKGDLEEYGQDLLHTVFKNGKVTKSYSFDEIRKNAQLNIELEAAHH
Procedure: Determination of the utility of compounds having Formula (I) as binders to and inhibitors of NAMPT was performed using a Time-Resolved Fluorescence Resonance Energy Transfer (TR-FRET) binding assay.
Time-Resolved Fluorescence Resonance Energy Transfer (TR-FRET) Binding Assay of NAMPT
The assay was carried out in 18 uL low volume plates (Owens Corning) in reaction buffer (50 mM HEPES (NaOH), pH 7.5, 100 mM NaCl, 10 mM MgCl2, 1 mM DTT, 1% Glycerol) using 6.8 nM recombinant, human, C-terminally-His tagged NAMPT, 1 nM Tb-anti-His antibody (Invitrogen, Cat # PV5895), and 200 nM probe (Oregon Green 488-conjugated APO866; A-1251667.0). Plates were covered, and reactions were carried out for 2-3 hours. Plates were read with Envision (Laser Lantha low volume protocol) after 2 to 3 hours. Excitation was carried out at 337 nm, and the ratio of emission of Oregon Green (520 nm) to terbium (492 nm) was determined and used to calculate IC50 values of test compounds.
CCC(C)CC(=O)Nc1ccc(NC(=O)N2CCc3ccccc3C2)cc1 (racemic) [Example 69, N-{4-[((3R)-3-methylpentanoyl)amino]phenyl}-3,4-dihydroisoquinoline-2(1H)-carboxamide and N-{4-[((3S)-3-methylpentanoyl)amino]phenyl}-3,4-dihydroisoquinoline-2(1H)-carboxamide] gave a pIC50 of 8.19. For CC(C)CCN1CC=C(c2ccc(NC(=O)N3CCc4ccccc4C3)cc2)CC1 [Example 55, N-{4-[1-(3-methylbutyl)-1,2,3,6-tetrahydropyridin-4-yl]phenyl}-3,4-dihydroisoquinoline-2(1H)-carboxamide], the pIC50 was 6.36. Work on O=C(Nc1ccc(C(=O)N2CCN(c3ccccn3)CC2)cc1)N1CCc2ccccc2C1 [Example 2, N-(4-{[4-(pyridin-2-yl)piperazin-1-yl]carbonyl}phenyl)-3,4-dihydroisoquinoline-2(1H)-carboxamide] yielded a pIC50 of 7.88. For CC(C)CC(=O)N1CC=C(c2ccc(NC(=O)N3CCc4ccccc4C3)cc2)CC1 [Example 47, N-{4-[1-(3-methylbutanoyl)-1,2,3,6-tetrahydropyridin-4-yl]phenyl}-3,4-dihydroisoquinoline-2(1H)-carboxamide], the pIC50 was 7.69. With CCCCCCC(=O)Nc1ccc(NC(=O)N2CCc3ccccc3C2)cc1 [Example 72, N-[4-(heptanoylamino)phenyl]-3,4-dihydroisoquinoline-2(1H)-carboxamide] the pIC50 was 7.77. For O=C(Nc1ccc(-c2cnn(CCO)c2)cc1)N1CCc2ccccc2C1 [Example 41, N-{4-[1-(2-hydroxyethyl)-1H-pyrazol-4-yl]phenyl}-3,4-dihydroisoquinoline-2(1H)-carboxamide], the pIC50 was 6.09. O=C(NCCCc1ccccc1)c1ccc(NC(=O)N2CCc3cc(F)ccc3C2)cc1 [Example 3, 6-fluoro-N-{4-[(3-phenylpropyl)carbamoyl]phenyl}-3,4-dihydroisoquinoline-2(1H)-carboxamide] showed a pIC50 of 7.86. Compound CS(=O)(=O)Nc1cccc2c1CCN(C(=O)Nc1ccc(NC(=O)CC3CCCC3)cc1)C2 [Example 98, N-{4-[(cyclopentylacetyl)amino]phenyl}-5-[(methylsulfonyl)amino]-3,4-dihydroisoquinoline-2(1H)-carboxamide] has a pIC50 of 8.52. O=C(Nc1ccc(-c2noc(Cc3ccccc3)n2)cc1)N1CCc2ccccc2C1 [Example 57, N-[4-(5-benzyl-1,2,4-oxadiazol-3-yl)phenyl]-3,4-dihydroisoquinoline-2(1H)-carboxamide] showed a pIC50 of 6.05. Work on CC(C)CCNC(=O)c1ccc(NC(=O)N2CCc3ccccc3C2)cn1 [Example 18, N-{6-[(3-methylbutyl)carbamoyl]pyridin-3-yl}-3,4-dihydroisoquinoline-2(1H)-carboxamide] yielded a pIC50 of 6.75. With CCCCCCNC(=O)N1CCc2ccccc2C1 [Example 59, N-hexyl-3,4-dihydroisoquinoline-2(1H)-carboxamide] the pIC50 was 6.06. For O=C(CC1CCCCC1)Nc1ccc(NC(=O)N2CCc3ccccc3C2)cc1 [Example 79, N-{4-[(cyclohexylacetyl)amino]phenyl}-3,4-dihydroisoquinoline-2(1H)-carboxamide], the pIC50 was 8.28. For C[C@@H](O)Cn1cc(-c2ccc(NC(=O)N3CCc4ccccc4C3)cc2)cn1 [Example 36, N-{4-[1-((2R)-2-hydroxypropyl)-1H-pyrazol-4-yl]phenyl}-3,4-dihydroisoquinoline-2(1H)-carboxamide], the pIC50 was 6.73. Work on O=C(Nc1ccc(NC(=O)N2CCc3ccccc3C2)cc1)c1ccccc1 [Example 80, N-[4-(benzoylamino)phenyl]-3,4-dihydroisoquinoline-2(1H)-carboxamide] yielded a pIC50 of 6.72. In the case of CC(=O)N1CCC(C(=O)Nc2ccc(NC(=O)N3CCc4ccccc4C3)cc2)CC1 [Example 65, N-(4-{[(1-acetylpiperidin-4-yl)carbonyl]amino}phenyl)-3,4-dihydroisoquinoline-2(1H)-carboxamide], the pIC50 was 6.94. CC(C)CCNC(=O)c1ccc(NC(=O)N2CCc3cnccc3C2)cc1 [Example 5, N-{4-[(3-methylbutyl)carbamoyl]phenyl}-3,4-dihydro-2,6-naphthyridine-2(1H)-carboxamide] gave a pIC50 of 7.80.
